This is an account of results in patent publication US6613317B1, “Volatile attractants for diabrotica species” (priority 1988, dated 2003).

Marks after values point to notes of the source that are not given here.

The test system of experiment [1] is D. barberi. Kind of experiment: Sticky trap attraction in prairie habitat, Trelease Woods (Example 2). Type of experiment: in vivo, Diabrotica barberi. Particulars: for Mean number of D. barberi per day (±standard deviation) / Mean number of D. barberi per sticky trap per day (±standard deviation): 100 mg per trap, n = 4. An outline of the steps:
(§1)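 Lure-dosed cotton wicks (solids in acetone; untreated controls) on TangleTrap-coated cartons atop 1 m posts, four replicates 10 m apart in relict prairie, mid-August over two years. Read-out: mean beetles caught after 24-h; log-transformed ANOVA with Duncan's multiple range test.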

Experiment [2] relates to D. cristata. Described as above. The format is in vivo, Diabrotica cristata. Particulars: 100 mg per trap, n = 4. The method in brief:
as §1

Experiment [3] deals with D. v. virgifera. Described as above. The format is in vivo, Diabrotica virgifera virgifera. Particulars: 100 mg per trap, n = 4. The method in brief: as §1
For experiment [4], the system named is D. barberi. The experiment in a line: Sticky trap attraction along hybrid corn, Pomology South Farms (Example 2). The format is in vivo, Diabrotica barberi. Particulars: 100 mg per trap, n = 4. The method in brief: (§2)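 Lures (>98% purity) dosed at 100 mg per trap on cotton wicks atop TangleTrap-coated 1.0 liter cartons, solids dissolved in acetone; untreated wicks as controls. Four replicates placed 10 m apart on 1 m posts along a 0.8 ha hybrid corn field; mean beetles caught after 24-h, log-transformed ANOVA with Duncan's test.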

In experiment [5] the test system is D. v. virgifera. The description is as above. Particulars: 100 mg per trap, n = 4. The format is in vivo, Diabrotica virgifera virgifera. The method in brief:
as §2

Experiment [6] has as its system western corn rootworm (WCR) adults. Kind of experiment: Sticky trap attraction in corn, estragole analogues (Example 3). Type of experiment: in vivo, Diabrotica virgifera virgifera. Particulars: 100 mg per trap, n = 4. The method in brief: (§3)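 Cotton wicks dosed with 100 mg or 100 μL attractant per trap on TangleTrap-coated cartons, four replicates 10 m apart on 1 m posts at field edges of hybrid or sweet corn. Mean beetles caught after ~24 h; log-transformed ANOVA with Duncan's test, P=0.05.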

Experiment [7] relates to southern corn rootworm (SCR) adults. The experiment is described as above. The format is in vivo, Diabrotica undecimpunctata howardi. Particulars: 100 mg per trap, n = 4. An outline of the steps:
as §3

As to `OCC=Cc1ccccc1` [XVIII, cinnamyl alcohol], the “Mean number of D. barberi per day (±standard deviation)” value is listed as 16.5 ± 5.1^c per day in experiment [1] (August 11, 1987) and 13.0 ± 12.8^bc per day in experiment [1] (August 14, 1987). For the same molecule, in experiment [1] (prairie, Table 5), the “activity for D. barberi relative to estragole” value is recorded as 5 times. In addition, the “activity for D. barberi relative to the TIC mixture” value in experiment [1] (prairie, Table 5) is on record as “ca. 3.5 times”. For the same molecule, the “Mean number of D. cristata per day (±standard deviation)” value in experiment [2] (August 11, 1987) is 28.3 ± 5.3^c per day; in experiment [2] (August 14, 1987), 20.5 ± 1.3^d per day. For the same molecule, the “Mean number of D. v. virgifera per day (±standard deviation)” value is listed as 0.0 per day in experiment [3] (August 11, 1987) and 0.0^a per day in experiment [3] (August 14, 1987). Further, the “Mean number of D. barberi per stick trap per day (±standard deviation) in corn” value is given as 8.5 ± 6.1^b per stick trap per day in experiment [4] (August 7) and 23.3 ± 5.9^c per stick trap per day in experiment [4] (August 18). The “Mean number of D. v. virgifera per stick trap per day (±standard deviation) in corn” value is 13.8 ± 10.2^a per stick trap per day in experiment [5] (August 7) and 3.3 ± 2.7^a per stick trap per day in experiment [5] (August 18). The “Mean number of WCR per sticky trap after 24 hours” value in experiment [6] (August 5 (Table 10)) is listed as 16.5 ± 1.9^ab per sticky trap. In addition, the figures for the “Mean number of WCR (±standard deviation) per sticky trap after 24 hours” value in experiment [6] (August 7 (Table 11)) and in experiment [6] (August 18 (Table 11)) were 13.8 ± 10.2^a per sticky trap and 3.3 ± 1.7^a per sticky trap, respectively. The “Mean number of SCR per sticky trap after 24 hours” value in experiment [7] (August 5 (Table 10)) is listed as 14.5 ± 9.6^ab per sticky trap. The “Mean number of SCR (±standard deviation) per sticky trap after 24 hours” value in experiment [7] (August 7 (Table 11)) is 24.5 ± 13.6^b per sticky trap; in experiment [7] (August 18 (Table 11)), 1.8 ± 1.3^b per sticky trap.

With `C=CCc1ccc(O)c(OC)c1` [XXIV, eugenol], the “Mean number of D. barberi per day (±standard deviation)” value in experiment [1] (August 11, 1987) is 9.5 ± 8.3^bc per day; in experiment [1] (August 14, 1987), 8.3 ± 3.3^c per day. The “Mean number of D. barberi per sticky trap per day (±standard deviation)” value in experiment [1] (August 18, first year) is listed as 21.8 ± 7.3^b per sticky trap per day; in experiment [1] (August 20, first year), 22.5 ± 13.2^c per sticky trap per day; in experiment [1] (August 27, first year) it was 10.5 ± 4.8^b per sticky trap per day. The “activity for D. barberi relative to estragole” value in experiment [1] (prairie, Table 5) is recorded as 2 times. The “Mean number of D. cristata per day (±standard deviation)” value in experiment [2] (August 11, 1987) was 39.5 ± 9.4^c per day; in experiment [2] (August 14, 1987), 20.0 ± 8.4^cd per day. The “Mean number of D. cristata per sticky trap per day (±standard deviation)” value in experiment [2] (August 18, first year) is reported as 11.5 ± 8.6^b per sticky trap per day; in experiment [2] (August 20, first year), 15.5 ± 7.9^c per sticky trap per day; in experiment [2] (August 27, first year), 3.5 ± 3.3^b per sticky trap per day. For the same molecule, the “Mean number of D. v. virgifera per day (±standard deviation)” value in experiment [3] (August 11, 1987) is given as 0.3 ± 0.5^a per day; in experiment [3] (August 14, 1987), 0.0^a per day. Besides, the “Mean number of D. v. virgifera per sticky trap per day (±standard deviation)” value in experiment [3] (August 18, first year) is given as 0.3 ± 0.5^a per sticky trap per day; in experiment [3] (August 20, first year), 0 per sticky trap per day; in experiment [3] (August 27, first year), 0 per sticky trap per day. The “Mean number of D. barberi per stick trap per day (±standard deviation) in corn” value in experiment [4] (August 7) was 5.8 ± 2.2^b per stick trap per day; in experiment [4] (August 18), 16.3 ± 5.7^b per stick trap per day. Moreover, the entries for the “Mean number of D. v. virgifera per stick trap per day (±standard deviation) in corn” value in experiment [5] (August 7) and in experiment [5] (August 18) were 10.0 ± 2.9^a per stick trap per day and 2.8 ± 2.9^a per stick trap per day, respectively. In addition, the “Mean number of WCR (±standard deviation) per sticky trap after 24 hours” value in experiment [6] (August 7 (Table 11)) is reported as 10.0 ± 2.9^a per sticky trap; in experiment [6] (August 18 (Table 11)), 2.7 ± 2.9^a per sticky trap. The “Mean number of SCR (±standard deviation) per sticky trap after 24 hours” value was 6.2 ± 1.0^a per sticky trap in experiment [7] (August 7 (Table 11)) and 0.0^a per sticky trap in experiment [7] (August 18 (Table 11)).
